Experimental data: patent publication US10005733B2, “N-(4-hydroxy-4-methyl-cyclohexyl)-4-phenyl-benzenesulfonamide and N-(4-hydroxy-4-methyl-cyclohexyl)-4-(2-pyridyl)-benzenesulfonamide compounds and their therapeutic use” (PIMCO 2664 LIMITED, priority 2014, dated 2018)

What was measured:
[1] = test system: DoHH2 B-cell lymphoma cells; experiment: DoHH2 B Cell Lymphoma Proliferation Assay; assay type: cell-based; details: Homo sapiens, DOHH-2; 72 hour incubation, flow cytometry with counting beads and eFluor 450
Protocol: In vitro potency of test compounds was determined by incubation with DoHH2 B-cell lymphoma cells and subsequent determination of cell number using flow cytometry.
Flow cytometry is a laser-based, biophysical technology employed in cell counting, cell sorting, and biomarker detection, by suspending cells in a stream of fluid and passing them by an electronic detection apparatus. It allows simultaneous multi-parametric analysis of the physical and chemical characteristics of up to thousands of particles per second. To quantify cell numbers, counting beads are used as an internal standard. Counting beads are a calibrated suspension of microbeads which are added to a known volume of sample so the sample volume per bead is known. This allows the absolute determination of cell number in a sample. Cell proliferation is measured using a dye known as Cell Proliferation Dye (eFluor® 450). eFluor® 450 is an organic dye which can be conjugated to cell-specific markers. […]
The average results for each test compound were expressed as a percent (%) of the average control value reflecting cell viability. The average values across the concentrations tested were then plotted and an IC50 was calculated by fitting the data to a 4-parameter IC50 equation using KaleidaGraph software (Synergy Software, Reading, Pa. USA).

[2] = test system: human primary osteoclasts; experiment: Human Primary Osteoclastogenesis (TRAP-positive multinucleated cells from CD14+ monocytes); assay type: cell-based; details: compound added on Day 4 of monocyte differentiation; for IC50: Homo sapiens, Osteoclast, 96 h
Protocol: In vitro potency of test compounds was determined by incubating them with human primary monocytes and assessing effects on the formation of mature osteoclasts.
The activity of the compounds in reducing the formation of human primary osteoclasts (osteoclastogenesis) was tested using monocytes derived from human whole blood. Monocytes, which are positive for the cell surface marker CD14, are part of the innate immune system found in the circulation. Peripheral blood monocytes differentiate to form several cell types, including osteoclasts. Human primary osteoclasts were […] macrophage colony-stimulating factor (M-CSF) and RANKL+10% foetal calf serum for approximately 6 days, with the exact duration depending on the individual donor of the cells.
When monocytes are cultured under the conditions described above, they form large, multinucleated cells (osteoclasts), which stain positively for tartrate-resistant acid phosphatase (TRAP). TRAP staining was performed between Days 5-6 of culture depending on the individual donor. Osteoclasts are identified as cells which stain positive for TRAP and contain more than 3 nuclei. Compounds which reduce the number of TRAP-positive cells reduce the formation of osteoclasts. The bisphosphonate compound, alendronate, which is used in the treatment of osteoporosis, is used as a positive control for reducing osteoclastogenesis in this assay.
Effects on osteoclast formation were assessed by staining for TRAP and counting cells containing more than three nuclei in each well under a microscope. This allows the absolute determination of cell number in each treated well.
PBMCs (peripheral blood mononuclear cells) were collected from healthy donors and isolated by centrifugation on a layer of Ficoll Paque (GE Healthcare, UK). Monocytes were then sorted from the PBMCs using an autoMACS Pro Separator (MiltenyiBiotec), which sorts cells depending on the markers present on their cell surface. The resulting CD14+ monocytes were resuspended in αMEM supplemented with 10% FCS, 25 ng/mL M-CSF and 100 ng/ml RANKL and added to a 48-well plate, which was then incubated for up to 6 days at 37° C./5% CO2. […] The medium was replenished every 2 days.
At the end of the culture period, the medium was removed from the cells and the cells were fixed at room temperature and then washed with phosphate-buffered saline. TRAP staining solution was then added and the cells incubated at 37° C. until a red colour had developed, after which the reaction was stopped by rinsing with water. The stained cells were air-dried and then photographed using a conventional microscope and the TRAP-positive multinucleated osteoclasts counted by two independent observers.
The average results (n=6) for each concentration of test compound were averaged between the two observers and then expressed as a fold change versus the average control value. The data were then plotted graphically using software from Grafit (Erithacus Software).

| Compound | IC50 [1] [nM] | % reduction at 1 μM [2] [%] | IC50 [2] [nM] |
| --- | --- | --- | --- |
| C[C@]1(O)CC[C@@H](NS(=O)(=O)c2ccc(-c3ccc(F)cc3F)cc2)CC1 [ABD899, reference compound] | 135 | – | – |
| C[C@]1(O)CC[C@H](NS(=O)(=O)c2ccc(-c3ccc(F)cc3F)cc2)CC1 [ABD900] | – | 90 | 370 |
| C[C@]1(O)CC[C@@H](NS(=O)(=O)c2ccc(-c3ccc(C#N)cc3)c(F)c2)CC1 [HMC-C-07-B, 4′-Cyano-2-fluoro-N-((1s,4s)-4-hydroxy-4-methylcyclohexyl)-[1,1′-biphenyl]-4-sulfonamide] | 186 | 90 | 120 |
